Active and inactive are the calls of the source.
Legend:
Troponin, cardiac muscle = Troponin, cardiac muscle (Homo sapiens, UniProt P19429+P45379+P63316); assay: Fluorescence-based biochemical high throughput dose response assay for activators of the calcium sensitivity of cardiac Regulated Thin Filaments (RTF). [Related pubchem assays (depositor defined):AID493008, AID493018, AID504382, AID504383]; format: protein-complex assay
[1] = molecular target: T1, E3 ubiquitin-protein ligase XIAP (Homo sapiens, UniProt P98170); assay: XIAP antagonists, biochemical, IAP family, fluorescence polarization (AID 1018); format: functional
T1 sequence (P98170 whole entry): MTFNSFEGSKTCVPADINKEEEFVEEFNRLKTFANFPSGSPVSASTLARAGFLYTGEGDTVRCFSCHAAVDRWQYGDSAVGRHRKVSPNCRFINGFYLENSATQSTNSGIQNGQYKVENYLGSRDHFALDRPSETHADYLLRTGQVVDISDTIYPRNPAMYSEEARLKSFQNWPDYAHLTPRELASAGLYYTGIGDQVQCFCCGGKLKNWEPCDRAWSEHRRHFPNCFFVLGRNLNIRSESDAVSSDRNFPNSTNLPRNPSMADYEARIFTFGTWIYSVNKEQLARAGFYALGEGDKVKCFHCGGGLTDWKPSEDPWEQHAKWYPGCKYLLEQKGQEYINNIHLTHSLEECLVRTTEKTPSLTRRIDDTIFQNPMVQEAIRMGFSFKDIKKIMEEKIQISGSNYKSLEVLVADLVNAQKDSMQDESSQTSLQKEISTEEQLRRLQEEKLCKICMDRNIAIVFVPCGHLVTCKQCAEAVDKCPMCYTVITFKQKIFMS

[2] = molecular target: T1, E3 ubiquitin-protein ligase XIAP; assay: Counter Screen using XIAP-Bir3 for Chemical Antagonists of Bir1/2 domains of IAP-family anti-apoptotic proteins. [Related pubchem assays (depositor defined):AID1018, AID1449, AID1514, AID1638, AID1749, AID1750, AID488957, AID488963]
[3] = molecular target: G-protein coupled receptor 55 (Homo sapiens, UniProt Q9Y2T6); assay: GPR55 antagonists blocking LPI-driven arrestin recruitment, primary screen, imaging, U2OS, beta-arrestin-GFP, LPI agonist (AID 2013); format: functional;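 note: antagonist potency measured as reduced agonist-driven arrestin aggregation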
Sequence of G-protein coupled receptor 55 (Q9Y2T6 whole entry): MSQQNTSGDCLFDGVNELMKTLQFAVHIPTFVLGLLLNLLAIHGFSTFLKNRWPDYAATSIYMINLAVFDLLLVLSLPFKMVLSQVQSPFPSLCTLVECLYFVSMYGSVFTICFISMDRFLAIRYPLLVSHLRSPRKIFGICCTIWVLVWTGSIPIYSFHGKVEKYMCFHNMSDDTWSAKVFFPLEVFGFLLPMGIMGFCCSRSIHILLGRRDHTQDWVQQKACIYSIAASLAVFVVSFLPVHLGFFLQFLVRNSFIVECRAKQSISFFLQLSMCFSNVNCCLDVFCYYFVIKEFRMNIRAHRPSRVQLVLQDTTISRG

[4] = molecular target: T2, High affinity choline transporter 1 (Homo sapiens, UniProt Q9GZV3); assay: CHT inhibitors, dose response, cell-based, 5-point CRC, membrane potential dye (AID 504840); format: functional
T2 sequence (Q9GZV3 whole entry): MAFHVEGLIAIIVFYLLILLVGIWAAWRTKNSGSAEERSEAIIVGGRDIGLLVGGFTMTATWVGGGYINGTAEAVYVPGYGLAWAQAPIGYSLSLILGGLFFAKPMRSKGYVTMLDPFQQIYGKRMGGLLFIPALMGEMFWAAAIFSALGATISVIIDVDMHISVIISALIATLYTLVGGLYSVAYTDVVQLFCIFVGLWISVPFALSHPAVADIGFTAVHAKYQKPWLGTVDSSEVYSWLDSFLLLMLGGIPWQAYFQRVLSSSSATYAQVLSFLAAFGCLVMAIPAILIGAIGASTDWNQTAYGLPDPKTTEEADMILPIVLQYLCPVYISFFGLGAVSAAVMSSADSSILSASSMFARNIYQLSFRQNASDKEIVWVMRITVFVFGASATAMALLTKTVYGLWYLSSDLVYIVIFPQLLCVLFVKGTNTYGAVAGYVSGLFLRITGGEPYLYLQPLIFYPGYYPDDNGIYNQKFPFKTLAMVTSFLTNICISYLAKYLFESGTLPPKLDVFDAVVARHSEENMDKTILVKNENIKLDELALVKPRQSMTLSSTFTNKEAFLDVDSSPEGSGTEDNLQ

[5] = molecular target: DNA dC->dU-editing enzyme APOBEC-3G (Homo sapiens, UniProt Q9HC16); assay: Dose Response confirmation of small molecule APOBEC3G DNA Deaminase Inhibitors via a fluorescence-based single-stranded DNA deaminase assay. [Related pubchem assays (depositor defined):AID493012, AID493028]; format: functional
Sequence of DNA dC->dU-editing enzyme APOBEC-3G (Q9HC16 whole entry): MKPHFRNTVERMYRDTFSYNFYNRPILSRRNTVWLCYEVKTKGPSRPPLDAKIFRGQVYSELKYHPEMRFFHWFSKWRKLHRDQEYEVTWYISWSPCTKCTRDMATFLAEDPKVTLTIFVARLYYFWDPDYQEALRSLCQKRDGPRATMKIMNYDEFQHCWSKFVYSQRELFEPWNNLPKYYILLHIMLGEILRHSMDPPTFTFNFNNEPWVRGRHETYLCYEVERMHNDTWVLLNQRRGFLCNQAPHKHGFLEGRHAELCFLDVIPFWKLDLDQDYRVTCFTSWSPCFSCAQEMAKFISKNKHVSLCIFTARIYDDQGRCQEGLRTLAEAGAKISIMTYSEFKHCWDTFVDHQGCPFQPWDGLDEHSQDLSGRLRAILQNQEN

[6] = molecular target: DNA dC->dU-editing enzyme APOBEC-3A (Homo sapiens, UniProt P31941); assay: APOBEC3A DNA deaminase inhibitors, dose response, biochemical (AID 504722); format: functional
Sequence of DNA dC->dU-editing enzyme APOBEC-3A (P31941 whole entry): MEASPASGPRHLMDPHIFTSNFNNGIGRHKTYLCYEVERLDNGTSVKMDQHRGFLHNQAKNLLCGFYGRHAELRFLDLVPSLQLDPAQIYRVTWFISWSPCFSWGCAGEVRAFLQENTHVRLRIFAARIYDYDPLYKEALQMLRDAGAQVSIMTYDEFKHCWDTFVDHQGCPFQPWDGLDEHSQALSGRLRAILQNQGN

Hexokinase = molecular target: T3, Hexokinase (Trypanosoma brucei, UniProt Q38C41); assay: Confirmation assay for inhibitors of Trypanosoma brucei hexokinase 1-Analogue-first series. [Related pubchem assays (depositor defined):AID1430, AID1632, AID2516, AID2560, AID2579, AID2600, AID449725, AID492951]; format: functional
T3 sequence (Q38C41 whole entry): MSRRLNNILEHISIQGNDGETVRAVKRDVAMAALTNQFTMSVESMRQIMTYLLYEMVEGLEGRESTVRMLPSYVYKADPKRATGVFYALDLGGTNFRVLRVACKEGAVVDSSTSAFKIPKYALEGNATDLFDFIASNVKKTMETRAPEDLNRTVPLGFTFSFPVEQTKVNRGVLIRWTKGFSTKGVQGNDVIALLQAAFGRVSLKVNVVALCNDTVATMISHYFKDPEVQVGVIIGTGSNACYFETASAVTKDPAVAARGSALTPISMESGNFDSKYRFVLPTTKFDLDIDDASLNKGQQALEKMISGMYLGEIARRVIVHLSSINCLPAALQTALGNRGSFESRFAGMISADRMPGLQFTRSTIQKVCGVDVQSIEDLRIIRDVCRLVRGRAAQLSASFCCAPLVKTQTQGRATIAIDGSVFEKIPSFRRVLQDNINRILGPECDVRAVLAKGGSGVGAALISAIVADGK

[7] = HeLa cell cytotoxicity, dose response, cytotoxicity control for MgcRacGAP inhibitor project (AID 624300); format: functional
[8] = molecular target: Glucose-6-phosphate 1-dehydrogenase (Homo sapiens, UniProt P11413); assay: human G6PD enzyme inhibitors, dose response, selectivity assay for P. falciparum G6PD inhibitor project, biochemical, fluorescence (AID 504792); format: functional
Sequence of Glucose-6-phosphate 1-dehydrogenase (P11413 whole entry): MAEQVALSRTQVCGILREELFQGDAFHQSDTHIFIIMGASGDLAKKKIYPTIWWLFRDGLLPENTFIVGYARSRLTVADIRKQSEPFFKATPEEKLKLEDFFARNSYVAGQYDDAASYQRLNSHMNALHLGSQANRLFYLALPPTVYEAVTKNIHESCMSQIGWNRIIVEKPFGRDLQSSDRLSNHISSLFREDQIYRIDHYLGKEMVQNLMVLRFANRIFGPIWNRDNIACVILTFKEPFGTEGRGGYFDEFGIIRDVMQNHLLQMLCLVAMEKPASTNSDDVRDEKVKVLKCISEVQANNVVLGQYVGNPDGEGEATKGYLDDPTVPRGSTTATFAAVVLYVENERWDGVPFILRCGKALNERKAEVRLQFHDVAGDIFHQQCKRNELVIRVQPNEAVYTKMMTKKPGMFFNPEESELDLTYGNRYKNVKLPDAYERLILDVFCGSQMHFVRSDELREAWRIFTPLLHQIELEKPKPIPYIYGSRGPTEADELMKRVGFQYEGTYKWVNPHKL

[9] = molecular target: T4, Rac GTPase-activating protein 1 (Homo sapiens, UniProt Q9H0H5); assay: MgcRacGAP GTPase-activating activity inhibitors, confirmation, biochemical, ADP Hunter fluorescence, primary and confirmatory (AID 624330); format: functional
T4 sequence (Q9H0H5 whole entry): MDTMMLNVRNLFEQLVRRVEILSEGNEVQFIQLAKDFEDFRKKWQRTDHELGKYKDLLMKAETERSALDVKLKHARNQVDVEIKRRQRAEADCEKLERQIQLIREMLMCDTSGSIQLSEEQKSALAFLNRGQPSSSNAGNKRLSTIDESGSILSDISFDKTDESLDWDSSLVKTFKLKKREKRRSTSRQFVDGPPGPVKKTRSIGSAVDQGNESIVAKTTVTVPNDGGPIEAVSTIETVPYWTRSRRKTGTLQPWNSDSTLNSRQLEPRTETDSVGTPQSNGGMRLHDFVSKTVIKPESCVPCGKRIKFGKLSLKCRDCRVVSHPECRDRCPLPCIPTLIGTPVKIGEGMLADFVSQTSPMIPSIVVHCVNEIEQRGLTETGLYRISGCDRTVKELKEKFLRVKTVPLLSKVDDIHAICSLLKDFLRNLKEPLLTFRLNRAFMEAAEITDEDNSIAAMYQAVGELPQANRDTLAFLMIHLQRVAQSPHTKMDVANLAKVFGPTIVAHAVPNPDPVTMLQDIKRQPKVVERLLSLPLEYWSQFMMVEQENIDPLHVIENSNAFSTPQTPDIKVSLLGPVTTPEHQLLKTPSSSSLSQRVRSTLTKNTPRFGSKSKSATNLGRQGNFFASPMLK

SUMO-activating enzyme [10] = molecular target: T5, SUMO-activating enzyme (Homo sapiens, UniProt Q9UBT2); assay: SUMOylation inhibitor hit validation, confirmation, SUMOylation inhibitor project, biochemical, AlphaScreen (AID 2018); format: functional
T5 sequence (Q9UBE0 whole entry): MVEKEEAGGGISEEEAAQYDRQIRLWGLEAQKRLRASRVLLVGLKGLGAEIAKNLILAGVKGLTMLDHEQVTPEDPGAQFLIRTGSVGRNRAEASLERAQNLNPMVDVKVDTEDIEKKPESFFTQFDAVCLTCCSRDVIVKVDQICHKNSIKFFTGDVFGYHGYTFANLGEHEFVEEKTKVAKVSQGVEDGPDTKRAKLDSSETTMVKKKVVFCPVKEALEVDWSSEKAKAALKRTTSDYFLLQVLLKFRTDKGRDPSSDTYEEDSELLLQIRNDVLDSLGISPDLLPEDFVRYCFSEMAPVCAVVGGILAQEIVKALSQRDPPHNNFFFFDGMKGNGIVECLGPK
T5 sequence (Q9UBT2 whole entry): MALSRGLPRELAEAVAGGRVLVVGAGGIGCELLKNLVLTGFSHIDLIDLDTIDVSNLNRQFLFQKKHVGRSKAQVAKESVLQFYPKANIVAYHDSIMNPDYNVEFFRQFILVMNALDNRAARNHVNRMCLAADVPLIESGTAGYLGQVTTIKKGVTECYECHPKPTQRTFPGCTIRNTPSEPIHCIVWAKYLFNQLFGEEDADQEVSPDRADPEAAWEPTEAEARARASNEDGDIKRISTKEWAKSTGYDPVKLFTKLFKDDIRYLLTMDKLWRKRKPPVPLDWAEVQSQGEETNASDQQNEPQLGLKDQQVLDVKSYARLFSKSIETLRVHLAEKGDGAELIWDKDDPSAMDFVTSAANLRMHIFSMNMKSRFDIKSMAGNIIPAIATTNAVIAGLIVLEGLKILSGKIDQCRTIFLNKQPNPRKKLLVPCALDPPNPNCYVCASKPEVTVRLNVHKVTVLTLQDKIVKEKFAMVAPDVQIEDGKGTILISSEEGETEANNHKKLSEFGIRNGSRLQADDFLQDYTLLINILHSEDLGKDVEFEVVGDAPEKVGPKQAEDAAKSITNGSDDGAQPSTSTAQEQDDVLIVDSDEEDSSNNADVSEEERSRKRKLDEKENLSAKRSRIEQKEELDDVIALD

Caspase-6 = molecular target: T6, Caspase-6 (Homo sapiens, UniProt P55212); assay: human caspase-6 inhibitors, dose response, biochemical, VEID-R110 fluorescence, cherry-pick (AID 720632)
T6 sequence (P55212 whole entry): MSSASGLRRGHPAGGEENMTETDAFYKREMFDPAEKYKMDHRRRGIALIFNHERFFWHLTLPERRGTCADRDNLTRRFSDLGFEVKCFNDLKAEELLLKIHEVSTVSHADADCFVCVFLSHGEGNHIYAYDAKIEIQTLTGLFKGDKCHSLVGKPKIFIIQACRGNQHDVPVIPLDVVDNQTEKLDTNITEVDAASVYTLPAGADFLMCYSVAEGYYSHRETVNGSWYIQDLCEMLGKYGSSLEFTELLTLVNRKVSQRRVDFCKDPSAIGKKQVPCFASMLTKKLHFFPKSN

[11] = molecular target: Eukaryotic translation initiation factor 4E (Mus musculus, UniProt P63073); assay: eIF4E–eIF4G protein interaction inhibitors, dose response, biochemical, TR-FRET (AID 855); format: functional;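 note: potency for disrupting eIF4E binding to eIF4GI seen as loss of FRET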
Sequence of Eukaryotic translation initiation factor 4E (P63073 whole entry): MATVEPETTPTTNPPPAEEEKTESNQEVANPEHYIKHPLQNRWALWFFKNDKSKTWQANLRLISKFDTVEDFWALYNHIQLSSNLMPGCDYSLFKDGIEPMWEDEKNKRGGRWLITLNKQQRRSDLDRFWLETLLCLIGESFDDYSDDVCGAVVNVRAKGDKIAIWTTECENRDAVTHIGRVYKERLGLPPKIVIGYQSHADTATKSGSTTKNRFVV

[12] = molecular target: T7, Zinc finger protein mex-5 (Caenorhabditis elegans, UniProt Q9XUB2); assay: MEX-5/TCR-2 RNA interaction inhibitors, dose response, biochemical, C. elegans, fluorescence polarization (AID 1960)
T7 sequence (Q9XUB2 whole entry): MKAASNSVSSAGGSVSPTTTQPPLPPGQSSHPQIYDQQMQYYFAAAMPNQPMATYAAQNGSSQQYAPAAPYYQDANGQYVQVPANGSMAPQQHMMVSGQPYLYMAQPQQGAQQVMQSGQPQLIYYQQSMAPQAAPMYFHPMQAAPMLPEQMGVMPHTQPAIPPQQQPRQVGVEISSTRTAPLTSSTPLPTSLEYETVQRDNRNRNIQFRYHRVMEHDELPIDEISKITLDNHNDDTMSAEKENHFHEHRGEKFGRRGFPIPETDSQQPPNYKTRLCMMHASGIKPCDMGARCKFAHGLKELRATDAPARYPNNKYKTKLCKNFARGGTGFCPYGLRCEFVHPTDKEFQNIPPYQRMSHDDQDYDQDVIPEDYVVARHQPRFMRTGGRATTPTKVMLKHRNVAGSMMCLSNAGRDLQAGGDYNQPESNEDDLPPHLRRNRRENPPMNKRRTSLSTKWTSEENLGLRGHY

[13] = molecular target: T8, RNA-binding protein pos-1 (Caenorhabditis elegans, UniProt G5EF15); assay: inhibitors of POS-1/mex-3 RNA binding, dose response, biochemical, fluorescence polarization (AID 1964);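 note: purified POS-1 fused to maltose binding protein made in E. coli; potency of compounds blocking POS-1 binding to fluorescent RNA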
T8 sequence (G5EF15 whole entry): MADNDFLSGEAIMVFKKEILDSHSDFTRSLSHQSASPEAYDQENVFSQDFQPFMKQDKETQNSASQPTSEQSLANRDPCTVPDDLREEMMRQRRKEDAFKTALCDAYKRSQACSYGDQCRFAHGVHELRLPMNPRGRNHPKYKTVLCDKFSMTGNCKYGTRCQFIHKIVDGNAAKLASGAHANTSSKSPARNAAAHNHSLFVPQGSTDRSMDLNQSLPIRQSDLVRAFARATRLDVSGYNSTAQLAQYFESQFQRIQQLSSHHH

Leucine aminopeptidase = molecular target: T9, Leucine aminopeptidase (Plasmodium falciparum 3D7, UniProt Q8IL11); assay: P. falciparum M17LAP inhibitors, primary screen, biochemical, fluorogenic H-Leu-NHMec substrate, 1536-well (AID 1619); format: functional
T9 sequence (Q8IL11 whole entry): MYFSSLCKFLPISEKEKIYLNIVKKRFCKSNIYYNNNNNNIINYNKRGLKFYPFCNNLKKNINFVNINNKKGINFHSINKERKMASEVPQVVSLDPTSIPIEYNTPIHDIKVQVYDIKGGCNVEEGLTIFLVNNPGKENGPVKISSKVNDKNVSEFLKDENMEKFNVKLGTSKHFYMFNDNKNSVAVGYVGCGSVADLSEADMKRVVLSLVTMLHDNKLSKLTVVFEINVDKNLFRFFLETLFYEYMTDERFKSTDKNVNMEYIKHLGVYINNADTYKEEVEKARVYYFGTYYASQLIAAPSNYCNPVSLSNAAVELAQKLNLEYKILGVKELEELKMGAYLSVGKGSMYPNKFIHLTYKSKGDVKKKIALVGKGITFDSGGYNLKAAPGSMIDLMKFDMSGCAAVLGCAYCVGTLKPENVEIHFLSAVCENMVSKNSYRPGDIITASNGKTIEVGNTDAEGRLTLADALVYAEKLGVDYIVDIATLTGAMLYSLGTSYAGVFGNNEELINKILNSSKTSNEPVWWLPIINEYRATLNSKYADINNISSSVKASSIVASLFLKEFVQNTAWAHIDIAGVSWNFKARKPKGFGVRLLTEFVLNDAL

SUMO-activating enzyme [14] = molecular target: T5, SUMO-activating enzyme; assay: inhibitors of in vitro SUMOylation cascade, primary screen, biochemical, HTRF, uHTS (AID 2006); format: protein-complex assay

With `Cc1cc(N2CCCC2)ccc1C=C(C#N)C#N` the EC50 (Troponin, cardiac muscle) was 4.16 µM (active).
In the case of `COc1nc(NS(=O)(=O)c2ccc(C)cc2)nc(C)c1Cl`, the IC50 [1] was > 100 µM (not active) and the IC50 [2] was > 100 µM (inactive).
For `O=C(Nc1ccccc1N1CCOCC1)c1cc(-c2ccncc2)nc2ccccc12`, the IC50 [3] was 4.89 µM (active).
For `O=C(O)CCN(Cc1ccccc1)S(=O)(=O)c1ccccc1Cl`, the IC50 [1] was > 100 µM (not active) and the IC50 [2] was > 100 µM (inactive).
In the case of `NNC(=O)COc1ccc(-c2[nH]nc(C(F)(F)F)c2-c2ccc(Br)cc2)c(O)c1`, the IC50 [3] was 1.7 µM (active).
In the case of `Cc1cccc(OCc2nc(C#N)c(NCCN(C)C)o2)c1`, the IC50 [1] was > 100 µM (not active) and the IC50 [2] was > 100 µM (inactive).
With `CCc1nnc(NS(=O)(=O)c2ccc(NC(=O)/C=C/c3ccccc3Cl)cc2)s1` the IC50 [4] was 13.8 µM (active) and the IC50 [3] was 1.99 µM (active).
For `COCc1cc(C)c(C#N)c(S)n1`, the IC50 [5] was 14.1 µM (active) and the IC50 [6] was > 100 µM (inactive).
In the case of `O=C1c2ccsc2SCCN1Cc1ccc(F)cc1`, the EC50 (Troponin, cardiac muscle) was > 71.5 µM (inactive).
In the case of `O=C(O)CCN1CCc2ccccc21`, the IC50 [1] was > 100 µM (not active) and the IC50 [2] was > 100 µM (inactive).
In the case of `Cc1cc(C)c2nc(NC(=O)C3CCCO3)sc2c1` (stereo unspecified), the EC50 (Troponin, cardiac muscle) was > 71.5 µM (inactive).
With `O=C(Nc1cc(Cl)ccc1C(=O)O)c1ccc(-c2ccccc2)cc1` the IC50 (Hexokinase) was 22.3 µM (active).
In the case of `Cc1ccc(-n2sc3cc(F)ccc3c2=O)c(C)c1`, the CC50 [7] was 72.5 µM (active), the IC50 [8] was 9.17 µM (active) and the IC50 [9] was 35.8 µM (active). For the same compound, the IC50 (Hexokinase) was 4.77 µM (active).
In the case of `O=C(Cn1sc2ccccc2c1=O)Nc1ccc(I)cc1`, the IC50 (Hexokinase) was 14.8 µM (active).
For `Cc1cc(/C=N/Nc2ccc([N+](=O)[O-])cn2)c(C)n1-c1ccc(C(=O)O)cc1`, the IC50 (SUMO-activating enzyme [10]) was 6.16 µM (active), the AC50 (Caspase-6) was 5.03 µM (active) and the IC50 [11] was 50 µM (inactive). For the same compound, the EC50 [12] was 111 µM (active), the EC50 [13] was > 300 µM (not active) and the IC50 (Leucine aminopeptidase) was 12.7 µM (active). For the same compound, the IC50 (SUMO-activating enzyme [14]) was 29 µM (active).
With `CC(/C=N/n1c(S)nnc1-c1cccnc1)=C\c1ccco1` the IC50 [5] was 1.93 µM (active) and the IC50 [6] was > 100 µM (inactive).
For `Sc1nnc(-c2ccncc2)n1/N=C/c1ccccc1`, the IC50 [5] was 2.52 µM (active), the IC50 [9] was 51.9 µM (active) and the IC50 [6] was > 100 µM (inactive).
In the case of `O=c1c(O)c(-c2ccc(O)c(O)c2)oc2cc(O)cc(O)c12` [QUERCETIN], the IC50 (Hexokinase) was 22.4 µM (active).

Reference: ChEMBL document CHEMBL1201862, “PubChem BioAssay data set” (2004)
